{"source": "paper PMC6851657", "about": "(Clinical Pharmacology and Therapeutics, 2019)", "origin": "cited, not measured here", "settings": "ref fluconazole SimCYP compound file V16; cited from earlier work"}
{"smiles": "OC(Cn1cncn1)(Cn1cncn1)c1ccc(F)cc1F", "note": "[Fluconazole, fluconazole]", "values": [{"measurement": "CL following i.v. administration", "value": 1.01, "unit": "L/h"}, {"measurement": "In vivo renal clearance in a 20–30 year healthy man", "value": 0.7, "unit": "L/h"}, {"measurement": "Volume of distribution at steady state", "value": 0.748, "unit": "L/kg"}]}
